Test results published in ChEMBL document CHEMBL4665836, “Overcoming β-Lactam resistance in Pseudomonas aeruginosa using non-canonical tobramycin-based antibiotic adjuvants” (2020).

Tests used:
Type in all cases: functional
[1] = system: Pseudomonas aeruginosa; experiment: Potentiation of aztreonam-induced antibacterial activity against carbapenem-resistant Pseudomonas aeruginosa 259-96918 clinical isolate expressing metallo-beta-lactamase assessed as aztreonam MIC at 8 uM by checkerboard assay (reference value: 32 ug/ml)
[2] = system: Pseudomonas aeruginosa; experiment: Potentiation of imipenem-induced antibacterial activity against carbapenem-resistant Pseudomonas aeruginosa 260-97103 clinical isolate assessed as imipenem MIC at 8 uM by checkerboard assay (reference value: 16 ug/ml)
[3] = system: Pseudomonas aeruginosa; experiment: Potentiation of imipenem-induced antibacterial activity against carbapenem-resistant Pseudomonas aeruginosa 262-101856 clinical isolate assessed as imipenem MIC at 8 uM by checkerboard assay (reference value: 32 ug/ml)
[4] = system: Pseudomonas aeruginosa; experiment: Potentiation of imipenem-induced antibacterial activity against carbapenem-resistant Pseudomonas aeruginosa 109084 clinical isolate assessed as imipenem MIC at 8 uM by checkerboard assay (reference value: 16 ug/ml)
[5] = system: Pseudomonas aeruginosa; experiment: Potentiation of piperacillin-induced antibacterial activity against wild type Pseudomonas aeruginosa PAO1 assessed as piperacillin MIC at 8 uM by checkerboard assay (reference value: 8 ug/ml)
[6] = system: Pseudomonas aeruginosa; experiment: Potentiation of aztreonam-induced antibacterial activity against carbapenem-resistant Pseudomonas aeruginosa 107092 clinical isolate assessed as aztreonam MIC at 8 uM by checkerboard assay (reference value: 64 ug/ml)
[7] = system: Pseudomonas aeruginosa; experiment: Potentiation of imipenem-induced antibacterial activity against carbapenem-resistant Pseudomonas aeruginosa 88949 clinical isolate assessed as fold reduction in imipenem MIC at 8 uM in presence of beta-lactamase inhibitor, rele-bactam
[8] = system: Pseudomonas aeruginosa; experiment: Potentiation of imipenem-induced antibacterial activity against carbapenem-resistant Pseudomonas aeruginosa 100036 clinical isolate assessed as imipenem MIC at 8 uM by checkerboard assay (reference value: 8 ug/ml)
[9] = system: Pseudomonas aeruginosa; experiment: Potentiation of aztreonam-induced antibacterial activity against carbapenem-resistant Pseudomonas aeruginosa 88949 clinical isolate assessed as fold reduction in aztreonam MIC at 8 uM in presence of beta-lactamase inhibitor, avi-bactam
[10] = system: Pseudomonas aeruginosa; experiment: Potentiation of ceftazidime-induced antibacterial activity against carbapenem-resistant Pseudomonas aeruginosa 260-97103 clinical isolate assessed as ceftazidime MIC at 8 uM by checkerboard assay (reference value: 32 ug/ml)
[11] = system: Pseudomonas aeruginosa; experiment: Potentiation of imipenem-induced antibacterial activity against wild-type Pseudomonas aeruginosa PAO1 assessed as imipenem MIC at 8 uM by checkerboard assay (reference value: 4 ug/ml)
[12] = system: Pseudomonas aeruginosa; experiment: Potentiation of ceftazidime-induced antibacterial activity against carbapenem and colistin-resistant Pseudomonas aeruginosa 114228 clinical isolate assessed as ceftazidime MIC at 8 uM by checkerboard assay (reference value: 8 ug/ml)
[13] = system: Pseudomonas aeruginosa; experiment: Potentiation of imipenem-induced antibacterial activity against carbapenem-resistant Pseudomonas aeruginosa 101885 clinical isolate assessed as imipenem MIC at 8 uM by checkerboard assay (reference value: 4 ug/ml)
[14] = system: Pseudomonas aeruginosa; experiment: Potentiation of ceftazidime-induced antibacterial activity against carbapenem-resistant Pseudomonas aeruginosa 100036 clinical isolate assessed as ceftazidime MIC at 8 uM by checkerboard assay (reference value: 8 ug/ml)
[15] = system: Pseudomonas aeruginosa; experiment: Potentiation of ceftazidime-induced antibacterial activity against carbapenem-resistant Pseudomonas aeruginosa 259-96918 clinical isolate expressing metallo-beta-lactamase assessed as ceftazidime MIC at 8 uM by checkerboard assay (reference value: 512 ug/ml)
[16] = system: Pseudomonas aeruginosa; experiment: Potentiation of aztreonam-induced antibacterial activity against carbapenem-resistant Pseudomonas aeruginosa 108590 clinical isolate assessed as aztreonam MIC at 8 uM by checkerboard assay (reference value: 32 ug/ml)
[17] = system: Pseudomonas aeruginosa; experiment: Antibacterial activity against Pseudomonas aeruginosa PAO750 harboring mexAB-oprM/mexCD-oprJ/mexEF-oprN/mexJK/mexXY/opmH efflux deficient mutant
[18] = system: Pseudomonas aeruginosa; experiment: Potentiation of imipenem-induced antibacterial activity against carbapenem-resistant Pseudomonas aeruginosa 109084 clinical isolate assessed as fold reduction in imipenem MIC at 8 uM in presence of beta-lactamase inhibitor, rele-bactam
[19] = system: Pseudomonas aeruginosa; experiment: Potentiation of aztreonam-induced antibacterial activity against carbapenem and colistin-resistant Pseudomonas aeruginosa 91433 clinical isolate assessed as aztreonam MIC at 8 uM by checkerboard assay (reference value: 16 ug/ml)
[20] = system: Pseudomonas aeruginosa; experiment: Potentiation of aztreonam-induced antibacterial activity against carbapenem-resistant Pseudomonas aeruginosa 264-104354 clinical isolate assessed as aztreonam MIC at 8 uM by checkerboard assay (reference value: 32 ug/ml)
[21] = system: Pseudomonas aeruginosa; experiment: Potentiation of imipenem-induced antibacterial activity against carbapenem and colistin-resistant Pseudomonas aeruginosa 101243 clinical isolate assessed as imipenem MIC at 8 uM by checkerboard assay (reference value: 8 ug/ml)
[22] = system: Pseudomonas aeruginosa; experiment: Potentiation of imipenem-induced antibacterial activity against carbapenem-resistant Pseudomonas aeruginosa 88949 clinical isolate assessed as imipenem MIC at 8 uM by checkerboard assay (reference value: 64 ug/ml)
[23] = system: Pseudomonas aeruginosa; experiment: Potentiation of ceftazidime-induced antibacterial activity against carbapenem and colistin-resistant Pseudomonas aeruginosa 101243 clinical isolate assessed as ceftazidime MIC at 8 uM by checkerboard assay (reference value: 64 ug/ml)
[24] = system: Pseudomonas aeruginosa; experiment: Potentiation of ceftazidime-induced antibacterial activity against carbapenem-resistant Pseudomonas aeruginosa 264-104354 clinical isolate assessed as ceftazidime MIC at 8 uM by checkerboard assay (reference value: 128 ug/ml)
[25] = system: Pseudomonas aeruginosa; experiment: Potentiation of ceftazidime-induced antibacterial activity against carbapenem-resistant Pseudomonas aeruginosa 101885 clinical isolate assessed as ceftazidime MIC at 8 uM by checkerboard assay (reference value: 8 ug/ml)
[26] = system: Pseudomonas aeruginosa; experiment: Potentiation of aztreonam-induced antibacterial activity against carbapenem and colistin-resistant Pseudomonas aeruginosa 114228 clinical isolate assessed as aztreonam MIC at 8 uM by checkerboard assay (reference value: 32 ug/ml)
[27] = system: Pseudomonas aeruginosa; experiment: Potentiation of aztreonam-induced antibacterial activity against carbapenem-resistant Pseudomonas aeruginosa 107092 clinical isolate assessed as fold reduction in aztreonam MIC at 8 uM in presence of beta-lactamase inhibitor, avi-bactam
[28] = system: Pseudomonas aeruginosa; experiment: Potentiation of imipenem-induced antibacterial activity against carbapenem-resistant Pseudomonas aeruginosa 264-104354 clinical isolate assessed as imipenem MIC at 8 uM by checkerboard assay (reference value: 16 ug/ml)
[29] = system: Pseudomonas aeruginosa; experiment: Potentiation of ceftazidime-induced antibacterial activity against carbapenem-resistant Pseudomonas aeruginosa 107092 clinical isolate assessed as fold reduction in ceftazidime MIC at 8 uM in presence of beta-lactamase inhibitor, avi-bactam
[30] = system: Pseudomonas aeruginosa; experiment: Potentiation of aztreonam-induced antibacterial activity against carbapenem-resistant Pseudomonas aeruginosa 100036 clinical isolate assessed as aztreonam MIC at 8 uM by checkerboard assay (reference value: 16 ug/ml)
[31] = system: Pseudomonas aeruginosa; experiment: Potentiation of ceftazidime-induced antibacterial activity against carbapenem-resistant Pseudomonas aeruginosa PAO750 harboring and mexAB-oprM/mexCD-oprJ/mexEF-oprN/mexJK/mexXY/opmH efflux deficient mutant assessed as ceftazidime MIC at 8 uM by checkerboard assay (reference value: 0.5 ug/ml)
[32] = system: Pseudomonas aeruginosa; experiment: Potentiation of piperacillin-induced antibacterial activity against wild type Pseudomonas aeruginosa PAO1 assessed as fold reduction in piperacillin MIC at 8 uM

N=C(N)NC[C@H]1O[C@H](O[C@H]2[C@H](OCCCCCCCCCCCCN3CCN(c4cc5c(cc4F)c(=O)c(C(=O)O)cn5C4CC4)CC3)[C@@H](O[C@H]3O[C@H](CO)[C@@H](O)[C@H](NC(=N)N)[C@H]3O)[C@H](NC(=N)N)C[C@@H]2NC(=N)N)[C@H](NC(=N)N)C[C@@H]1O.O=C(O)C(F)(F)F.O=C(O)C(F)(F)F.O=C(O)C(F)(F)F.O=C(O)C(F)(F)F.O=C(O)C(F)(F)F.O=C(O)C(F)(F)F
MIC [1]: 32 µg/mL
MIC [2]: 8 µg/mL
MIC [3]: 16 µg/mL
MIC [4]: 16 µg/mL
MIC [5]: 8 µg/mL
MIC [6]: 32 µg/mL
fold change (FC) [7]: 16
MIC [8]: 4 µg/mL
fold change (FC) [9]: 16
MIC [10]: 16 µg/mL
MIC [11]: 1 µg/mL
MIC [12]: 2 µg/mL
MIC [13]: 2 µg/mL
MIC [14]: 6 µg/mL
MIC [15]: 512 µg/mL
MIC [16]: 2 µg/mL
MIC [17]: 16 µg/mL
fold change (FC) [18]: 16
MIC [19]: 16 µg/mL
MIC [20]: 32 µg/mL
MIC [21]: 4 µg/mL
MIC [22]: 64 µg/mL
MIC [23]: 16 µg/mL
MIC [24]: 128 µg/mL
MIC [25]: 2 µg/mL
MIC [26]: 8 µg/mL
fold change (FC) [27]: 16
MIC [28]: 16 µg/mL
fold change (FC) [29]: 16
MIC [30]: 16 µg/mL
MIC [31]: 0.25 µg/mL
fold change (FC) [32]: 2

NC[C@H]1O[C@H](O[C@H]2[C@H](OCCCCc3cn(CCCCO[C@@H]4[C@@H](O)[C@H](N)C[C@H](N)[C@H]4O[C@H]4O[C@H](CN)[C@@H](O)C[C@H]4N)nn3)[C@@H](O)[C@H](N)C[C@@H]2N)[C@H](N)C[C@@H]1O.O=C(O)C(F)(F)F.O=C(O)C(F)(F)F.O=C(O)C(F)(F)F.O=C(O)C(F)(F)F.O=C(O)C(F)(F)F.O=C(O)C(F)(F)F.O=C(O)C(F)(F)F.O=C(O)C(F)(F)F
MIC [1]: 8 µg/mL
MIC [2]: 16 µg/mL
MIC [3]: 4 µg/mL
MIC [4]: 16 µg/mL
MIC [5]: 8 µg/mL
MIC [6]: 32 µg/mL
fold change (FC) [7]: 16
MIC [8]: 4 µg/mL
fold change (FC) [9]: 16
MIC [10]: 16 µg/mL
MIC [11]: 2 µg/mL
MIC [12]: 1 µg/mL
MIC [13]: 4 µg/mL
MIC [14]: 4 µg/mL
MIC [15]: 128 µg/mL
MIC [16]: 16 µg/mL
MIC [17]: 128 µg/mL
fold change (FC) [18]: 16
MIC [19]: 2 µg/mL
MIC [20]: 8 µg/mL
MIC [21]: 8 µg/mL
MIC [22]: 32 µg/mL
MIC [23]: 32 µg/mL
MIC [24]: 32 µg/mL
MIC [25]: 1 µg/mL
MIC [26]: 16 µg/mL
fold change (FC) [27]: 16
MIC [28]: 8 µg/mL
fold change (FC) [29]: 16
MIC [30]: 4 µg/mL
MIC [31]: 0.13 µg/mL
fold change (FC) [32]: 2
